{"source": "patent US20230122219A1", "about": "“IRAK DEGRADERS AND USES THEREOF” (Kymera Therapeutics, Inc., priority 2020, published 2023)", "key": {"IRAK4 [1]": {"target": "T1, IRAK4 (Homo sapiens, UniProt Q9NWZ3)", "T1 sequence (Q9NWZ3 1-460)": "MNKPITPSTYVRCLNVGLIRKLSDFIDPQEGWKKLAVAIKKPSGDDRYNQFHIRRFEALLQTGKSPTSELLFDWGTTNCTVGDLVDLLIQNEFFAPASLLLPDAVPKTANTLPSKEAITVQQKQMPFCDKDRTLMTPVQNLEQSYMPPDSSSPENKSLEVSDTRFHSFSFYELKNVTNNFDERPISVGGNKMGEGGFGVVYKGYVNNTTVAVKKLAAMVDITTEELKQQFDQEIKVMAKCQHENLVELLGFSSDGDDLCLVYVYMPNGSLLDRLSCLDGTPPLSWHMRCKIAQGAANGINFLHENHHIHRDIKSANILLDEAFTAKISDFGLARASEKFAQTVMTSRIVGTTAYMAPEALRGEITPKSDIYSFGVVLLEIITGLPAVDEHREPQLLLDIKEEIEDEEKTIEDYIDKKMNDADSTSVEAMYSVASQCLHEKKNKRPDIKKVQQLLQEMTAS", "test": "IRAK4 MSD Degradation in OCI-LY10", "type": "cell-based", "design": "endogenous in cells; host or cells: OCI-LY10", "settings": "OCI-LY10 cells, 4 hrs, Meso Scale Discovery", "experimental": "Degradation of IRAK4 in OCI-LY10 was quantitatively measured using Meso Scale Discovery technology. OCI-LY10 cells were seeded in 96-well plates (Corning 3799) with a density of 300,000 cells per well in 100 μL fresh media. Compounds were then added to the assay plates with a final top concentration of 1 to 10 μM in a 1:3 dilution series with total of 8 doses. The assay plates were then incubated for 4 to 24 hours at 37° C. under 5% CO2. The assay plates were then centrifuged for 5 minutes and the cell pellets were treated with 100 μL/well RIPA lysis buffer (Boston BioProducts BP-115D) with proteinase inhibitors. To prepare MSD assay plates (Meso Scale Discovery Catalog number L15XA-3), the plates were coated with […] capture antibody (mouse Anti-IRAK4 antibody [2H9], ab119942) in PBS, at 40 μL/well. […] The assay plates were then incubated at room temperature for 1 hour, washed 3 times with 150 μL/well TBST buffer, and 150 μL/well MSD reading buffer (Meso Scale Discovery catalog number R92TC-2) was added. The plates were then analyzed by a MSD reader (Meso Scale Discovery, Model Quick Plex SQ 120). The data was then analyzed by software Prism 7.0 from GraphPad and the dose-depended IRAK4 degradation were fit using a three-parameter logistic equation to calculate DC50. […]"}, "IRAK4 [2]": {"target": "T1, IRAK4", "test": "Human Whole Blood IRAK4 Degradation (whole blood monocyte, flow cytometry)", "type": "cell-based", "design": "Whole blood was collected in heparinized tubes and plated on the same day as draw (day 0); from tissue; host or cells: human whole blood (CD14-positive monocytes gated by flow cytometry)", "settings": "human whole blood monocytes, read-out: IRAK4 degradation in whole blood: Average external Abs DC50", "experimental": "Whole blood was collected in heparinized tubes and plated on the same day as draw (day 0). Whole blood was aliquoted into deep well plates. Compound plates were prepared and a 10 point, 5-fold dilution was performed with a final DMSO concentration of 0.1%. Compound was added to whole blood deep well plate, sealed and incubated at 37° C., 5% C02 for 20 hours (for 4 hour treatment, compounds were prepared and added the following day). Following the treatment incubation period (day 1), BD lyse fix (BD#558049) was added to the whole blood plate, placed on plate shaker for 30 seconds and incubated for 10 mins at room temperature. Whole blood was then spun down and washed two times with PBS/0.5% BSA, aspirated to pellet and placed into −80° C. freezer until further processing for flow. On the flow run day, whole blood plates were thawed and samples were transferred to PCR plates. The pre-perm staining cocktail (CD3 Ax488/CD8 BUV805/CD14 BUV395/CD16/56 BV711/CD19 BV785) was added to samples and incubated for 30 minutes at room temperature. Samples were washed two times and permeabilized with Methanol for 10 minutes at 4° C. […] Twenty hour dose curves were calculated using a 4 parameter logistic regression curve fit, no constraints (Top doses were removed if hook effects were observed and the bottom was constrained to 0). […]"}}, "data": [{"smiles": "CN(C[C@H]1CC[C@H](n2cc(NC(=O)c3cnn4cccnc34)c(C(F)F)n2)CC1)C1CCN(c2cccc3c2n(C)c(=O)n3C2CCC(=O)NC2=O)CC1", "note": "(some centres unmarked) [I-1]", "values": [{"measurement": "DC50", "setting": "IRAK4 [1]", "result": "< 50", "unit": "nM"}, {"measurement": "DC50", "setting": "IRAK4 [2]", "result": "< 50", "unit": "nM"}]}]}
